Assay results reported in patent publication US10869851B1, “Targeting NUR77 for mitigating perinatal neuroinflammation” (The United States Government as represented by the …, priority 2017, dated 2020).

Legend:
Ccr2 = experiment: Intrauterine LPS neuroinflammation model, fetal brain qRT-PCR of Ccr2; type: in vivo, CD1 mice
Method: (§1) Mice were randomly assigned to six groups: Group 1) 4 pups/PBS+normal saline (NS), Group 2) 4 pups/LPS+NS, Group 3) 4 pups/LPS+MgSO4, Group 4) 4 pups/LPS+BMZ, Group 5) 4 pups/LPS+MgSO4 and BMZ, and Group 6) 4 pups/LPS+TMPA. Except for the non-surgical control (Group 1), each group underwent intrauterine injection of either vehicle or LPS. Phosphate buffered saline (PBS) and normal saline (NS) were used for the control groups. […] Mice received 300 μl of normal saline prior to surgery as a precaution against dehydration. All surgical procedures were performed under anesthesia with isoflurane within a sterile environment using PPE and sterile surgical tools to prevent infection. E15.5 pup brains were compared 6 hours post LPS within the six treatment groups as described in Table 1:
(§2) Mice randomized to Groups 3-5 received a single subcutaneous (SQ) injection of 0.1 mg of MgSO4 and/or BMZ 30 minutes after intrauterine injection of LPS, per the Hallak protocol: 270 mg/kg SQ loading dose followed by 27 mg/kg SQ every 20 minutes for a four-hour duration. […]
(§3) A power analysis was conducted to determine the appropriate number of subjects. Using data, it was determined that a minimum number of pups per treatment group of […] was necessary to obtain statistical power at the 0.80 level.

Ikbkb = experiment: Intrauterine LPS neuroinflammation model, fetal brain qRT-PCR of Ikbkb; type: in vivo, CD1 mice
Method: as §1, §2, §3

Nos2 = experiment: Intrauterine LPS neuroinflammation model, fetal brain qRT-PCR of Nos2; type: in vivo, CD1 mice
Method: as §1, §2, §3

Nur77 expression = experiment: Intrauterine LPS preterm labor/neuroinflammation model, Nur77 expression in fetal brain (microarray, qRT-PCR); design: species or system CD1 mice; settings: mouse, in vivo
Method: as §1
Mice randomized to Groups 3-5 received a single subcutaneous (SQ) injection of 0.1 mg of MgSO4 and/or BMZ 30 minutes after intrauterine injection of LPS, per the Hallak protocol: 270 mg/kg SQ loading dose followed by 27 mg/kg SQ every 20 minutes for a four-hour duration. Mice randomized to Group 6 received a single dose of 50 mg/kg TMPA (approximately 2 mg of TMPA in 80 μl dimethyl sulfoxide (DMSO)) 30 minutes post-operative, as described by Zhan et al..

cerebral palsy = settings: meta-analysis [9]; cited from earlier work
[1] = E15.5, 6 hours post LPS, LPS+treatment vs LPS

SMILES | Ccr2 expression in embryonic brain (Ccr2; [1]) | Ikbkb expression in embryonic brain (Ikbkb; [1]) | Nos2 expression in embryonic brain (Nos2; [1]) | Nur77 expression (quantitative reverse-transcriptase PCR validation) (Nur77 expression) | Nur77 expression in fetal brain tissue (microarray) (Nur77 expression) | Ccr2 expression in embryonic brain (Ccr2; mouse, in vivo) | Ikbkb expression in embryonic brain (Ikbkb; mouse, in vivo) | Nos2 expression in embryonic brain (Nos2; mouse, in vivo) | women in preterm labor treated per single case of cerebral palsy prevented (cerebral palsy)
CCCCCCCC(=O)c1cc(OC)c(OC)c(OC)c1CC(=O)OCC [TMPA, ethyl 2-(2,3,4-trimethoxy-6-octanoylphenyl)acetate] | significantly lower vs. LPS | significantly lower vs. LPS | significantly lower vs. LPS | – | – | – | – | – | –
O=S(=O)([O-])[O-].[Mg+2] [MgSO4, magnesium sulfate] | – | – | – | reduced | significantly reduced | only significantly lower for Ikbkb | significantly lower | only significantly lower for Ikbkb | 46
